{"source": "patent US6521641B1", "about": "“Male anti-fertility agents” (Allergan, Inc., priority 1998, dated 2003)", "tested_on": "Sprague-Dawley rats", "assay": "Topical administration of AGN 193109 to rats with Recovery group (Example 4)", "assay_type": "in vivo, rat", "procedure": "This experiment is conducted as indicated in Example 2, except that the drug is 193109 rather than AGN 194310, and a Recovery group is monitored for a period of time post-treatment as in Example 3. Dosages of the '109 drug is the same as for the topical treatment with the '310 drug.", "key": {"[1]": {"conditions": "rats, topical, at the effective dose"}}, "data": [{"compound": "Cc1ccc(C2=CCC(C)(C)c3ccc(C#Cc4ccc(C(=O)O)cc4)cc32)cc1", "note": "[AGN 193109]", "values": [{"measurement": "reversibility (testes histology)", "setting": "male rats 12 weeks after administration", "result": "repopulation of the tubules with males gametes in various stages of development"}, {"measurement": "histological analysis of the testes", "setting": "[1]", "result": "absence of primary spermatocytes, spermatids and spermatozoa in the majority of animals' seminiferous tubules"}, {"measurement": "spermatogenic arrest (examination of the testes)", "setting": "[1]", "result": "spermatogenic arrest can be seen within thirty days after initiation of treatment"}]}]}
